Assays:
[1] = test system: OCI-AML3 (Acute Myeloid Leukemia); test: combination Emax (second highest fraction inhibited in the dose matrix, 72 h); higher = more inhibition; extreme values may be limits of the assay
Procedure, shortened: (§1)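 Cell lines in DMEM/F12 or RPMI with 10% FBS were plated in 1536-well plates, held 24 hours at 37°C, 5% CO2, then given two-drug dose matrices for 72 hours (DMSO typically 0.2%). Viability was read by CellTiter-Glo 2.0 luminescence and scaled as inhibition from 0 (vehicle wells) to 1 (blank wells). Combination Emax is the second-highest inhibition in the matrix; Bliss excess is observed combination effect minus expected EA + EB − EA·EB, EA and EB being single-agent effects.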

[2] = test system: OCI-AML3 (Acute Myeloid Leukemia); test: Bliss excess, mean over the matrix (fraction); higher = more synergy
Procedure, shortened: as §1

[3] = test system: SNU-398 (Hepatocellular Carcinoma); test: as above
Procedure, shortened: as §1

[4] = test system: DAN-G (Pancreatic Carcinoma); test: as above
Procedure, shortened: as §1
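Throughout, for Bliss excess, mean over the matrix: after 72 h of two-drug dosing.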

COc1nnc2ccc(N3CCC(c4ccc(OCCN5CCN(C)C(=O)[C@H]5C)cc4)CC3)nn12 [AZD5153] + CCN(CCO)CCCOc1ccc2c(Nc3cc(CC(=O)Nc4cccc(F)c4)[nH]n3)ncnc2c1 [AZD2811] (first compound max 1 µM, 7x7, partner max 1 µM)
combination Emax [1]: 1
Bliss excess [2]: 0.05
Bliss excess [3]: -0.0495
Bliss excess [4]: -0.0611

CS(=O)(=O)CCNCc1ccc(-c2ccc3ncnc(Nc4ccc(OCc5cccc(F)c5)c(Cl)c4)c3c2)o1 [Lapatinib] + C[C@@H](Oc1cc(-c2cnn(C3CCNCC3)c2)cnc1N)c1c(Cl)ccc(F)c1Cl [Crizotinib] (first compound max 10 µM, 7x7, partner max 10 µM)
combination Emax [1]: 0.846
Bliss excess [2]: -0.0235
Bliss excess [3]: -0.0451
Bliss excess [4]: 0.0148

NC1(C(=O)N[C@@H](CCO)c2ccc(Cl)cc2)CCN(c2ncnc3[nH]ccc23)CC1 [Capivasertib] + CCN(CCO)CCCOc1ccc2c(Nc3cc(CC(=O)Nc4cccc(F)c4)[nH]n3)ncnc2c1 [AZD2811] (first compound max 10 µM, 7x7, partner max 1 µM)
combination Emax [1]: 0.585
Bliss excess [2]: -0.095
Bliss excess [3]: 0.0216
Bliss excess [4]: 0.004

COc1nnc2ccc(N3CCC(c4ccc(OCCN5CCN(C)C(=O)[C@H]5C)cc4)CC3)nn12 [AZD5153] + Cn1cnc2c(F)c(Nc3ccc(Br)cc3Cl)c(C(=O)NOCCO)cc21 [Selumetinib] (first compound max 1 µM, 7x7, partner max 10 µM)
combination Emax [1]: 1
Bliss excess [2]: -0.0046
Bliss excess [3]: -0.0298
Bliss excess [4]: -0.0368

Cn1cnc2c(F)c(Nc3ccc(Br)cc3Cl)c(C(=O)NOCCO)cc21 [Selumetinib] + CCN(CCO)CCCOc1ccc2c(Nc3cc(CC(=O)Nc4cccc(F)c4)[nH]n3)ncnc2c1 [AZD2811] (first compound max 10 µM, 7x7, partner max 1 µM)
combination Emax [1]: 0.949
Bliss excess [2]: 0.0086
Bliss excess [3]: 0.0026
Bliss excess [4]: 0.0445

Cn1cnc2c(F)c(Nc3ccc(Br)cc3Cl)c(C(=O)NOCCO)cc21 [Selumetinib] + C[C@@H]1COCCN1C2=NC(=NC(=C2)C3(CC3)[S@](=N)(=O)C)C4=C5C=CNC5=NC=C4 [AZD6738] (first compound max 10 µM, 7x7, partner max 10 µM)
combination Emax [1]: 0.943
Bliss excess [2]: -0.0941
Bliss excess [3]: 0.0082
Bliss excess [4]: 0.0105

COc1nnc2ccc(N3CCC(c4ccc(OCCN5CCN(C)C(=O)[C@H]5C)cc4)CC3)nn12 [AZD5153] + CC1(C)CCC(CN2CCN(c3ccc(C(=O)NS(=O)(=O)c4ccc(NCC5CCOCC5)c([N+](=O)[O-])c4)c(Oc4cnc5[nH]ccc5c4)c3)CC2)=C(c2ccc(Cl)cc2)C1 [Venetoclax] (first compound max 1 µM, 7x7, partner max 1 µM)
combination Emax [1]: 1
Bliss excess [2]: -0.052
Bliss excess [3]: -0.126
Bliss excess [4]: -0.0437

COc1cc2ncnc(Nc3ccc(F)c(Cl)c3)c2cc1OCCCN1CCOCC1 [Gefitinib] + CC(C)n1c(=O)n(C)c2cnc3cc(F)c(-c4ccc(OCCCN5CCCCC5)nc4)cc3c21 [AZD1390] (first compound max 10 µM, 7x7, partner max 0.3 µM)
combination Emax [1]: 0.059
Bliss excess [2]: -0.0457
Bliss excess [3]: -0.0627

CC(=O)c1c(C)c2cnc(Nc3ccc(N4CCNCC4)cn3)nc2n(C2CCCC2)c1=O [Palbociclib] + Cc1c2c(nn1C)CSCc1cc(n(C)n1)CSc1cc(c3ccccc3c1)OCCCc1c(C(=O)O)n(C)c3c-2c(Cl)ccc13 [AZD5991] (first compound max 10 µM, 7x7, partner max 1 µM)
combination Emax [1]: 1
Bliss excess [2]: 0.0376
Bliss excess [3]: 0.0128
Bliss excess [4]: -0.0356

CS(=O)(=O)CCNCc1ccc(-c2ccc3ncnc(Nc4ccc(OCc5cccc(F)c5)c(Cl)c4)c3c2)o1 [Lapatinib] + Cn1cnc2c(F)c(Nc3ccc(Br)cc3Cl)c(C(=O)NOCCO)cc21 [Selumetinib] (first compound max 10 µM, 7x7, partner max 10 µM)
combination Emax [1]: 0.879
Bliss excess [2]: -0.0562

CC(=O)c1c(C)c2cnc(Nc3ccc(N4CCNCC4)cn3)nc2n(C2CCCC2)c1=O [Palbociclib] + Cn1cnc2c(F)c(Nc3ccc(Br)cc3Cl)c(C(=O)NOCCO)cc21 [Selumetinib] (first compound max 10 µM, 7x7, partner max 10 µM)
combination Emax [1]: 0.935
Bliss excess [2]: 0.0289
Bliss excess [3]: -0.0388
Bliss excess [4]: -0.0077

Cc1nc(Nc2ncc(C(=O)Nc3c(C)cccc3Cl)s2)cc(N2CCN(CCO)CC2)n1 [Dasatinib] + CC(=O)Nc1cccc(-n2c(=O)n(C3CC3)c(=O)c3c(Nc4ccc(I)cc4F)n(C)c(=O)c(C)c32)c1 [Trametinib] (first compound max 2 µM, 7x7, partner max 1 µM)
combination Emax [1]: 0.942
Bliss excess [2]: -0.0745
Bliss excess [3]: -0.0842
Bliss excess [4]: 0.138

NC1(C(=O)N[C@@H](CCO)c2ccc(Cl)cc2)CCN(c2ncnc3[nH]ccc23)CC1 [Capivasertib] + C[C@@H]1COCCN1C2=NC(=NC(=C2)C3(CC3)[S@](=N)(=O)C)C4=C5C=CNC5=NC=C4 [AZD6738] (first compound max 10 µM, 7x7, partner max 10 µM)
combination Emax [1]: 0.891
Bliss excess [2]: -0.0224
Bliss excess [3]: -0.0748
Bliss excess [4]: -0.0679

CC1(C)CCC(CN2CCN(c3ccc(C(=O)NS(=O)(=O)c4ccc(NCC5CCOCC5)c([N+](=O)[O-])c4)c(Oc4cnc5[nH]ccc5c4)c3)CC2)=C(c2ccc(Cl)cc2)C1 [Venetoclax] + CCN(CCO)CCCOc1ccc2c(Nc3cc(CC(=O)Nc4cccc(F)c4)[nH]n3)ncnc2c1 [AZD2811] (first compound max 1 µM, 7x7, partner max 1 µM)
Bliss excess [3]: -0.0599
Bliss excess [4]: -0.0106

CN(CCO)CC[C@H](CSc1ccccc1)Nc1ccc(S(=O)(=O)NC(=O)c2ccc(N3CCC([C@@H](O)c4ccccc4-c4ccc(Cl)cc4)CC3)cc2)cc1S(=O)(=O)C(F)(F)F [AZD4320] + C1CN(CCC1(C(=O)N[C@@H](CCO)C2=CC=C(C=C2)Cl)N)C3=NC=NC4=C3C=CN4 [Capivasertib] (first compound max 1 µM, 7x7, partner max 3 µM)
Bliss excess [3]: -0.032
Bliss excess [4]: -0.0354

Cc1c2c(nn1C)CSCc1cc(n(C)n1)CSc1cc(c3ccccc3c1)OCCCc1c(C(=O)O)n(C)c3c-2c(Cl)ccc13 [AZD5991] + Cc1cc2ncnn2cc1Nc1ncc2c(n1)n(C1CCOCC1)c(=O)n2C [AZD7648] (first compound max 1 µM, 7x7, partner max 10 µM)
Bliss excess [3]: -0.0125
Bliss excess [4]: -0.0402

CC1(C)CCC(CN2CCN(c3ccc(C(=O)NS(=O)(=O)c4ccc(NCC5CCOCC5)c([N+](=O)[O-])c4)c(Oc4cnc5[nH]ccc5c4)c3)CC2)=C(c2ccc(Cl)cc2)C1 [Venetoclax] + C=CCn1c(=O)c2cnc(Nc3ccc(N4CCN(C)CC4)cc3)nc2n1-c1cccc(C(C)(C)O)n1 [AZD1775] (first compound max 1 µM, partner max 1 µM)
Bliss excess [3]: 0.0035
Bliss excess [4]: -0.0114

COc1cccc(OCCCN)c1-c1cc(Nc2cnc(C#N)cn2)n[nH]1 [Prexasertib] + Cc1cc2ncnn2cc1Nc1ncc2c(n1)n(C1CCOCC1)c(=O)n2C [AZD7648] (first compound max 1 µM, 7x7, partner max 10 µM)
Bliss excess [3]: 0.0353
Bliss excess [4]: -0.0095

CCN(CCO)CCCOc1ccc2c(Nc3cc(CC(=O)Nc4cccc(F)c4)[nH]n3)ncnc2c1 [AZD2811] + C[C@@H]1COCCN1C2=NC(=NC(=C2)C3(CC3)[S@](=N)(=O)C)C4=C5C=CNC5=NC=C4 [AZD6738] (first compound max 1 µM, 7x7, partner max 10 µM)
Bliss excess [3]: 0.007
Bliss excess [4]: -0.0427

CCc1c2c(nc3ccc(O)cc13)-c1cc3c(c(=O)n1C2)COC(=O)[C@]3(O)CC [SN-38] + CN(C)CCCOc1ccc(-c2ccc3ncc4c(c3c2)n(C2CCOCC2)c(=O)n4C)cn1 [AZD0156] (first compound max 0.3 µM, 7x7, partner max 1 µM)
Bliss excess [3]: 0.0255
Bliss excess [4]: 0.0626

CCN(CCO)CCCOc1ccc2c(Nc3cc(CC(=O)Nc4cccc(F)c4)[nH]n3)ncnc2c1 [AZD2811] + O=C(c1cc(Cc2n[nH]c(=O)c3ccccc23)ccc1F)N1CCN(C(=O)C2CC2)CC1 [Olaparib] (first compound max 1 µM, 7x7, partner max 10 µM)
Bliss excess [3]: -0.0223
Bliss excess [4]: 0.0092

CN(C)CCCOc1ccc(-c2ccc3ncc4c(c3c2)n(C2CCOCC2)c(=O)n4C)cn1 [AZD0156] + C[C@@H]1COCCN1C2=NC(=NC(=C2)C3(CC3)[S@](=N)(=O)C)C4=C5C=CNC5=NC=C4 [AZD6738] (first compound max 1 µM, 7x7, partner max 10 µM)
Bliss excess [3]: -0.0039
Bliss excess [4]: 0.0425

CN(CCO)CC[C@H](CSc1ccccc1)Nc1ccc(S(=O)(=O)NC(=O)c2ccc(N3CCC([C@@H](O)c4ccccc4-c4ccc(Cl)cc4)CC3)cc2)cc1S(=O)(=O)C(F)(F)F [AZD4320] + Cn1cnc2c(F)c(Nc3ccc(Br)cc3Cl)c(C(=O)NOCCO)cc21 [Selumetinib] (first compound max 1 µM, 7x7, partner max 3 µM)
Bliss excess [3]: 0.0783
Bliss excess [4]: 0.04

Cc1cc2ncnn2cc1Nc1ncc2c(n1)n(C1CCOCC1)c(=O)n2C [AZD7648] + CN(C)CCCOc1ccc(-c2ccc3ncc4c(c3c2)n(C2CCOCC2)c(=O)n4C)cn1 [AZD0156] (first compound max 10 µM, 7x7, partner max 1 µM)
Bliss excess [3]: -0.0273
Bliss excess [4]: -0.0168

COc1cccc(OCCCN)c1-c1cc(Nc2cnc(C#N)cn2)n[nH]1 [Prexasertib] + C=CCn1c(=O)c2cnc(Nc3ccc(N4CCN(C)CC4)cc3)nc2n1-c1cccc(C(C)(C)O)n1 [AZD1775] (first compound max 1 µM, partner max 1 µM)
Bliss excess [3]: 0.0254
Bliss excess [4]: -0.0093

CC1(C)CCC(CN2CCN(c3ccc(C(=O)NS(=O)(=O)c4ccc(NCC5CCOCC5)c([N+](=O)[O-])c4)c(Oc4cnc5[nH]ccc5c4)c3)CC2)=C(c2ccc(Cl)cc2)C1 [Venetoclax] + Cc1cc2ncnn2cc1Nc1ncc2c(n1)n(C1CCOCC1)c(=O)n2C [AZD7648] (first compound max 1 µM, 7x7, partner max 10 µM)
Bliss excess [3]: -0.0427
Bliss excess [4]: -0.0106

CN(CCO)CC[C@H](CSc1ccccc1)Nc1ccc(S(=O)(=O)NC(=O)c2ccc(N3CCC([C@@H](O)c4ccccc4-c4ccc(Cl)cc4)CC3)cc2)cc1S(=O)(=O)C(F)(F)F [AZD4320] + C[C@@H](Nc1cc(F)cc(F)c1)c1cc(C(=O)N(C)C)cc2c(=O)cc(N3CCOCC3)oc12 [AZD8186] (first compound max 1 µM, 7x7, partner max 3 µM)
Bliss excess [3]: 0.0201
Bliss excess [4]: 0.0484
